For assay [1], the system named is péroxydation lipidique. Nature of the assay: MDA formation test, non-enzymatic lipid peroxidation triggered by ferrous sulfate/ascorbate in rat liver microsomes. It counts as biochemical, rat S.D. The note with it: FeSO4/ascorbate, 15 min 37°C. An excerpt: (§1) L'activité antioxydante est recherchée, in vitro, par le test de formation de la malonyldialdéhyde (MDA) qui mesure la péroxydation lipidique déclenchée : soit a) de façon non enzymatique par le sulfate ferreux, dans • 1) des homogénats de cerveau ou • 2) des microsomes hépatiques de rat soit b) de façon enzymatique par NADPH et le tétrachlorure de carbone, dans des microsomes hépatiques de rat. 1.1 : La formation de MDA est mesurée sur des homogénats au 1/10^e (V/V) de cerveaux de rat S.D (200 g) préparés dans un tampon de Krebs pH 7,4 selon les conditions décrites dans J. Biol. Chem. 262 (1987) 10438-10440. On incube 1 ml d'homogénat pendant 60 mn à 37°C en présence de 25 microlitres d'éthanol contenant ou non le produit à tester, après addition de 25 microlitres de solution de sulfate ferreux préparée extemporanément dans de l'eau dégazée à l'argon (200 micromoles final). On prélève 0,25 ml de mélange incubé et ajoute 1,5 ml d'acide phosphorique à 1 %, 0,25 ml de solution 200 micromoles de déféroxamine (Desféral^R Ciba Geigy) dans l'eau, 10 microlitres de tert-butylhydroxytoluène (BHT) à 8,7 mg/ml dans l'éthanol et 0,5 ml d'acide thiobarbiturique (TBA) à 0,6 % dans l'eau. On chauffe le mélange à 100°C pendant 45 mn, refroidit, ajoute 4 ml de n-butanol, centrifuge pendant 15 mn à 4000 t/mn puis lit la DO à 535 nm de la fraction surnageante. On incube dans les mêmes conditions les blancs de réaction en absence de Fe++. On calcule le pourcentage d'inhibition : pourcentage d'inhibition =(DO en présence de produit)/(DO en absence de produit) [formula] Résultats :
1.2 : La formation de MDA est mesurée sur des microsomes hépatiques de rat S.D (200 g) préparés à partir de la fraction sédimentée à 100.000 g d'un homogénat de foie dans un tampon sucrose dont on utilise la fraction restant insoluble à 100.000 g dans un tampon de pyrophosphate de sodium 100 mM pH 7,4 et que l'on homogénéise dans un tampon phosphate de sodium 100 mM pH 7,4 à 20 % de glycérol, puis que l'on conserve à -80°C. On incube les microsomes pendant 15 mn à 37°C dans 1 ml contenant du tampon Tris-HCl 35 mM, KCl 0,1 M pH 7,4, 1 mg de protéine microsomale, 5 microlitres d'éthanol renfermant ou non le produit à tester, 250 microlitres de solution d'ascorbate dans le tampon Tris (0,5 mM final), après l'addition de 250 microlitres de sulfate ferreux préparée extemporanément dans le tampon Tris (6 micromoles final). On arrête la réaction par addition de 2 ml d'une solution d'acide trichloracétique 1 M dans l'acide chlorhydrique 0,25 M contenant 0,4 % d'acide thiobarbiturique. On chauffe le mélange à 85°C pendant 25 mn, refroidit, centrifuge pendant 15 mn à 3500 t/mn puis lit la DO à 535 nm de la fraction surnageante. On effectue en même temps les blancs de réaction en absence de Fe++. On calcule le pourcentage d'inhibition comme précédemment.
In general terms: Liver microsomes are a subcellular fraction often used to study metabolism.

Assay [2] concerns oedème plantaire provoqué par l'acide arachidonique. Kind of assay: Arachidonic acid-induced paw oedema test (anti-oedema activity). It counts as in vivo, rats mâles EOPS de souche Sprague Dawley. The note with it: rat; for Variation de volume de la patte 1 heure après AA: ** p < 0,01 (Dunnett). An excerpt:
L'activité anti-inflammatoire est évaluée in vivo par mesure de l'activité anti-oedémateuse à l'aide du test de l'oedème plantaire provoqué par l'acide arachidonique décrit par M.J. Di Martino et al. (Agents and Actions 1987 21 3/4 303).
Les animaux d'expérimentation sont des rats mâles EOPS de souche Sprague Dawley pesant 150-170 g (Iffa Credo).
Ce test est pratiqué sur des groupes de 8 rats mâles pesant 130 à 150 g à jeun depuis 16 heures. L'acide arachidonique est injecté sous l'aponévrose plantaire d'une patte postérieure à la dose de 0,2 mg sous un volume de 0,1 ml. Le volume de la patte est mesuré à l'aide d'un pléthysmomètre à eau, avant et 1 heure après l'injection de l'acide arachidonique. La différence entre ces deux volumes représente le degré d'inflammation. Les animaux sont traités par les produits à étudier ou le véhicule seul en même temps que l'injection de l'acide arachidonique.
Les produits étudiés ont été administrés par voie orale sous un volume de 4 ml/kg après avoir été mis en suspension dans la méthylcellulose à 0,5%. Toutes les expériences ont été réalisées avec comme produit de référence la dexaméthasone à la dose de 0,5 mg/kg par voie orale.
Les résultats sont exprimés en variation de volume de la patte 1 heure après l'injection d'acide arachidonique (AA), en absence ou en présence du produit à tester administré à différentes doses.
L'interprétation statistique des résultats a été effectuée selon le test de Dunnett (* p < 0,05 - ** p < 0,01) ou selon le test de Mann Whitney (° p < 0,05 - °° p < 0,01).
Pour chaque dose administrée par voie orale, on calcule le pourcentage d'inhibition de l'oedème par le produit testé, par rapport au témoin.

Assay [3] relates to péroxydation lipidique. Kind of assay: MDA formation test, enzymatic lipid peroxidation triggered by NADPH and carbon tetrachloride in liver microsomes of phenobarbital-pretreated rats. It counts as biochemical. The note with it: rat liver microsomes (phenobarbital-pretreated), NADPH + CCl4, 15 min 37°C.
Source text: as §1
2 : La formation de MDA est mesurée sur des microsomes hépatiques de rats prétraités au phénobarbital (80 mg/kg par 3 injections i.p), préparés comme décrit précédemment. On incube les microsomes pendant 15 mn à 37°C dans 1 ml contenant du tampon phosphate 0,1 M pH 7,4, 1 mg de protéine microsomale, 5 microlitres d'éthanol renfermant ou non le produit à tester, 5 microlitres de tétrachlorure de carbone (5,5 mM final) après l'addition de 50 microlitres de solution de NADPH dans le tampon phosphate (1 mM final). On arrête la réaction puis effectue le dosage selon les conditions décrites précédemment.

In assay [4] the test system is péroxydation lipidique. Nature of the assay: MDA formation test, non-enzymatic lipid peroxidation triggered by ferrous sulfate in rat brain homogenates. It counts as biochemical, rat S.D. Conditions: rat brain homogenate, FeSO4, 60 min 37°C.
Source text: as §1, with “[formula]” for “[formula] Résultats :”

We go through two molecules from patent publication EP0389368B1, “New derivatives of 6-(1-piperazinyl) 2,5-pyridine diamine N,N,N',N'-substituted, procedure for their production and intermediates, their use as medicines and pharmaceutical preparations containing them” (priority 1989, dated 1990).

For the molecule `CCN(CC)c1ccc(N(CC)CC)c(N2CCNCC2)n1` [Produit de l'ex. 1, N,N,N′,N′-tétraéthyl 6-(1-pipérazinyl) 2,5-pyridine diamine], the “pourcentage d'inhibition” value was 99,4 pourcentage in the assay on péroxydation lipidique [1] (1.10^-5M, 10 µM); 44,0 pourcentage with péroxydation lipidique [1] (1.10^-6M, 1 µM); 99,4 pourcentage with péroxydation lipidique [1] (5.10^-6M, 5 µM); 96 ± 1 pourcentage in the assay on péroxydation lipidique [3] (1.10^-5M, 10 µM); 43 ± 3 pourcentage in the assay on péroxydation lipidique [3] (1.10^-6M, 1 µM); 93 ± 0,2 pourcentage in the assay with péroxydation lipidique [3] (5.10^-6M, 5 µM). Moreover, the “pourcentage d'inhibition” value with péroxydation lipidique [4] (1.10^-4M, 100 µM) was 67,4 ± 8,6 pourcentage; with péroxydation lipidique [4] (1.10^-5M, 10 µM) it was 60,3 ± 9,1 pourcentage; with péroxydation lipidique [4] (5.10^-4M, 500 µM), 74,2 ± 3,8 pourcentage. Further, the “Variation de volume de la patte 1 heure après AA” value in assay [2] (dose 20 mg/kg oral) is on record as 0,33 ± 0,06** cm3.

For `CCN(CC)c1ccc(N(CC)CC)c(N2CCN(CC(=O)[C@H]3[C@H](C)C[C@H]4[C@@H]5CCC6=CC(=O)C=C[C@]6(C)C5=CC[C@@]43C)CC2)n1` [Produit de l'ex. 2, 21-[4-[3,6-bis(diéthylamino) 2-pyridyl] 1-pipérazinyl] 16alpha-méthyl pregna-1,4,9(11)-triène-3,20-dione], the “pourcentage d'inhibition” value is listed as 99,8 pourcentage with péroxydation lipidique [1] (1.10^-5M, 10 µM); 42,0 ± 5 pourcentage in the assay on péroxydation lipidique [1] (1.10^-6M, 1 µM); 99,5 pourcentage in the assay with péroxydation lipidique [1] (5.10^-6M, 5 µM); 91 ± 1 pourcentage in the assay with péroxydation lipidique [3] (1.10^-5M, 10 µM); 49 ± 1,5 pourcentage in the assay on péroxydation lipidique [3] (1.10^-6M, 1 µM); 88 ± 1 pourcentage with péroxydation lipidique [3] (5.10^-6M, 5 µM). For the same molecule, the “pourcentage d'inhibition” value is given as 55,6 ± 1,3 pourcentage in the assay with péroxydation lipidique [4] (1.10^-4M, 100 µM); 63,8 ± 4,3 pourcentage in the assay on péroxydation lipidique [4] (1.10^-5M, 10 µM); 60,4 ± 4,4 pourcentage in the assay on péroxydation lipidique [4] (5.10^-4M, 500 µM). Also, the “Variation de volume de la patte 1 heure après AA” value in assay [2] (dose 0,5 mg/kg oral) is reported as 0,32 ± 0,04** cm3; in assay [2] (dose 1 mg/kg oral) it was 0,32 ± 0,01** cm3. In addition, the activité anti-inflammatoire entry in assay [2] (result in words, from the dose of 0,5 mg/kg oral) was “forte activité”.
